The source of these data is patent publication US10858362B2, “Imidazopyrazinones as PDE1 inhibitors” (H. Lundbeck A/S, priority 2015, dated 2020).

What all share (type): biochemical
Test [1] deals with PDE1A (Homo sapiens (Human), UniProt P54750). Description: PDE1 inhibition assay, PDE1A. As to conditions: for IC50: 15 nM tritium labelled cAMP. How it is done:
Reactions were initiated by addition of the cyclic nucleotide substrate, and reactions were allowed to proceed for 1 h at room temperature before being terminated through mixing with 20 μL (0.2 mg) yttrium silicate SPA beads (PerkinElmer).

For test [2], the target named is PDE1B (Homo sapiens (Human), UniProt Q01064). The experiment in a line: PDE1 inhibition assay, PDE1B. The note with it: for IC50: 15 nM tritium labelled cAMP. On the procedure:
(§1) Reactions were initiated by addition of the cyclic nucleotide substrate, and reactions were allowed to proceed for 1 h at room temperature before being terminated through mixing with 20 μL (0.2 mg) yttrium silicate SPA beads (PerkinElmer). The beads were allowed to settle for 1 h in the dark before the plates were counted in a Wallac 1450 Microbeta counter.

Test [3] addresses PDE1C (Homo sapiens (Human), UniProt Q14123). The experiment in a line: PDE1 inhibition assay, PDE1C. The note with it: for IC50: 15 nM tritium labelled cAMP. How it is done:
as §1

In test [4] the target is PDE9 (Homo sapiens (Human), UniProt O76083). The experiment in a line: PDE9 inhibition assay. Put shortly: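 SPA radiometric read-out: after a 1 hr reaction, yttrium silicate beads were added, allowed to settle 1 hr in the dark and counted. Substrate 10 nM ^3H-cAMP, PDE9 amount giving 20-25% conversion, buffer 50 mM HEPES pH 7.6/10 mM MgCl2/0.02% Tween20, varying inhibitor amounts.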
Chain of PDE9 (O76083 whole entry): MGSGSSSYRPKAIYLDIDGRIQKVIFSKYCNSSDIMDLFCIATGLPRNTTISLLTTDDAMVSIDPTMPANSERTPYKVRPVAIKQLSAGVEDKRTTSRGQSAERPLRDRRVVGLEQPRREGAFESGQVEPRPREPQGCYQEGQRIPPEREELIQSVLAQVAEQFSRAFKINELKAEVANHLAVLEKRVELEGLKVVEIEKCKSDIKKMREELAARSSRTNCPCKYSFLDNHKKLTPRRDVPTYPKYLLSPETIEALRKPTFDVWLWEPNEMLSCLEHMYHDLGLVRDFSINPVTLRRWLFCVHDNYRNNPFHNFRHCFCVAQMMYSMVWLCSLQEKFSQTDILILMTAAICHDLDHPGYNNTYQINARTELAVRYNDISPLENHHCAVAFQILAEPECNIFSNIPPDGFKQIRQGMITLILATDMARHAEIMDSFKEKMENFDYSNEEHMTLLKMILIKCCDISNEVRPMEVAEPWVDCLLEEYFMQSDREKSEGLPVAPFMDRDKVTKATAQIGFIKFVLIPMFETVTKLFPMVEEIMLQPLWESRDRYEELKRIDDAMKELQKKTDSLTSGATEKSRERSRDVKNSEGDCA

Chain of PDE1B (Q01064 whole entry): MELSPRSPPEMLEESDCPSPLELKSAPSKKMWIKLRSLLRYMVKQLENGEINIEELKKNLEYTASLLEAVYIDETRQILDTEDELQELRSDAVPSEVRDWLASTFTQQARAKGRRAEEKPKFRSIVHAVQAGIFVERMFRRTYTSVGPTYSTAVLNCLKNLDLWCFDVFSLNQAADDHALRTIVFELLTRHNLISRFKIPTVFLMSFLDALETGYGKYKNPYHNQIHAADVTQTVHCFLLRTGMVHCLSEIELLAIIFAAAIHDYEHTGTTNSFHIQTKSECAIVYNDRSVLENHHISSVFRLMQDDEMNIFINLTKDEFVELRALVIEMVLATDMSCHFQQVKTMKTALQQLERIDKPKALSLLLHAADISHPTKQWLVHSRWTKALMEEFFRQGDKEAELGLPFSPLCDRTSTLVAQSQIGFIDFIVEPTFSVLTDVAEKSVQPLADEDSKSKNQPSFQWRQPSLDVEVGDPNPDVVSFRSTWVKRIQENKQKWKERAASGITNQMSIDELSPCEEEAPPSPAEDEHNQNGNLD
Chain of PDE1C (Q14123 whole entry): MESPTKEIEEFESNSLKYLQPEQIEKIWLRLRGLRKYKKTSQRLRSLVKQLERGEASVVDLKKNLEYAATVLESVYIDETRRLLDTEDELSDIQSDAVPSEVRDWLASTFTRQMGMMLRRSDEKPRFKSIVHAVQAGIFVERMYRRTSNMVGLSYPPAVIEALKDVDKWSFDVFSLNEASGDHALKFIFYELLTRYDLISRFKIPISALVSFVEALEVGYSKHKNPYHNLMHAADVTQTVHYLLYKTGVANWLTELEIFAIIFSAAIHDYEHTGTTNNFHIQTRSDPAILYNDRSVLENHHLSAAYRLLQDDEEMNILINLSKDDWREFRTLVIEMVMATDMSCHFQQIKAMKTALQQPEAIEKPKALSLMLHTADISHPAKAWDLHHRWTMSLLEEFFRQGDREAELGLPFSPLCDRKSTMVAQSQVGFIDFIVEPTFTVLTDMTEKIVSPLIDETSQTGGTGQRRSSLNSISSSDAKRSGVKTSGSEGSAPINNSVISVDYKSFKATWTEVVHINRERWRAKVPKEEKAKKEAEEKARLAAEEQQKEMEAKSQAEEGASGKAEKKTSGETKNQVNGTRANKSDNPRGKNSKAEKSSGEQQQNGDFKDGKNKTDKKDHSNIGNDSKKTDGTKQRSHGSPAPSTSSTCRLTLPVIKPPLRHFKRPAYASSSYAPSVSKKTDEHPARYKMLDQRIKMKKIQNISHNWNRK
Chain of PDE1A (P54750 whole entry): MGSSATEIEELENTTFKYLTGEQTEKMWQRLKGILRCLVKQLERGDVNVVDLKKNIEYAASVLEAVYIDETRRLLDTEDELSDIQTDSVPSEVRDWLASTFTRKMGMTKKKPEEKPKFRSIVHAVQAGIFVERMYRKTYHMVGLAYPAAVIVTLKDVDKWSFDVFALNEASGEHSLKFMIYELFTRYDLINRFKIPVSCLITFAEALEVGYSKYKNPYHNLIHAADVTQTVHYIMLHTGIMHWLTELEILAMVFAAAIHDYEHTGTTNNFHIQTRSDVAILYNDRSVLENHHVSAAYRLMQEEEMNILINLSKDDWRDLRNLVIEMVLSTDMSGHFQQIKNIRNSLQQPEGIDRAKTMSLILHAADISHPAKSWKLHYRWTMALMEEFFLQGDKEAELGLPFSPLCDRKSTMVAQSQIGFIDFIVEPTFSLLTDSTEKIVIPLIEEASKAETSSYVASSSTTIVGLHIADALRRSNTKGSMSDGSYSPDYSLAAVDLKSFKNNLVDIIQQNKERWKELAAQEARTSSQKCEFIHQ

On to `CCCn1c(C)cn2c(C3CCOCC3)ncc2c1=O` [Example 60, 6-methyl-7-propyl-3-(tetrahydro-2H-pyran-4-yl)imidazo[1,5-a]pyrazin-8(7H)-one], for which the IC50 (in general, the concentration needed to halve the response being measured) turned out to be 810 nM in test [1], 221 nM in test [2] and 423 nM in test [3]. For the same molecule, the inhibition (as a rule, the change of the read-out against control, counted positive when it falls) at 10 µM in test [4] is -13%.
For `Cc1cn2c(C3CCOCC3)ncc2c(=O)n1Cc1ccc2c(c1)OCO2` [Example 50, 7-(benzo[d][1,3]dioxol-5-ylmethyl)-6-methyl-3-(tetrahydro-2H-pyran-4-yl)imidazo[1,5-a]pyrazin-8(7H)-one] the same measures were 50 nM, 16 nM, 38 nM and 12%.
Consider `COc1ccc(Cn2c(CC3CCCC3)cn3c(C4CCOCC4)ncc3c2=O)cc1` [Example 92, 6-(cyclopentylmethyl)-7-(4-methoxybenzyl)-3-(tetrahydro-2H-pyran-4-yl)imidazo[1,5-a]pyrazin-8(7H)-one], for which the IC50 in test [1] was 71 nM; in test [2] it was 11 nM; in test [3] it was 79 nM. Also, the inhibition at 10 µM in test [4] came to 57%.
On the same counts, the results for `Cc1cn2c(C3CCOCC3)ncc2c(=O)n1Cc1ccc(OC(F)(F)F)cc1` [Example 41, 6-methyl-3-(tetrahydro-2H-pyran-4-yl)-7-(4-(trifluoromethoxy)benzyl)imidazo[1,5-a]pyrazin-8(7H)-one] are 27 nM, 18 nM, 52 nM and -22%.
As to `Cc1cn2c(C3(C)CC3)ncc2c(=O)n1Cc1cccc(F)c1` [Example 33, 7-(3-fluorobenzyl)-6-methyl-3-(1-methylcyclopropyl)imidazo[1,5-a]pyrazin-8(7H)-one], the IC50 in test [1] was 94 nM; in test [2], 52 nM; in test [3], 7 nM. The inhibition at 10 µM in test [4] was -2%.
For `Cc1cn2c([C@H]3C[C@H]3C)ncc2c(=O)n1Cc1cccc(F)c1` (single isomer, unassigned; isomer 4) [35, isomer 4], in test [1], the “PDE1A, % inhibition (at 1 μM)” value is on record as 43%. For the same molecule, the IC50 in test [2] worked out at 360 nM; in test [3], 85 nM. The “% inhibition of PDE9 at 10 microM” value in test [4] amounted to 5%.
With `Cc1cn2c([C@H]3CCCCO3)ncc2c(=O)n1Cc1cccc(F)c1` (single isomer, unassigned; isomer 2) [30, isomer 2], the “PDE1A, % inhibition (at 1 μM)” value in test [1] came out at 27%. Besides, in test [2] (at 1 μM), the “PDE1B, % inhibition (at 1 μM)” value was determined as 40%. Also, the IC50 in test [3] came to 215 nM. In test [4], the “% inhibition of PDE9 at 10 microM” value came to 28%.
As to `Cc1cn2c(C3CCOCC3)ncc2c(=O)n1Cc1ccccc1F` [Example 17, 7-(2-Fluorobenzyl)-6-methyl-3-(tetrahydro-2H-pyran-4-yl)imidazo[1,5-a]pyrazin-8(7H)-one], the IC50 was 42 nM in test [1], 36 nM in test [2] and 9 nM in test [3]. Moreover, in test [4], the inhibition at 10 µM was found to be 7%.
On the same counts, the results for `Cc1cn2c(C3CCOCC3)ncc2c(=O)n1Cc1ccccc1Cl` [Example 19, 7-(2-Chlorobenzyl)-6-methyl-3-(tetrahydro-2H-pyran-4-yl)imidazo[1,5-a]pyrazin-8(7H)-one] are 46 nM, 68 nM, 10 nM and 18%.
`Cc1cn2c(C3CCOCC3)ncc2c(=O)n1Cc1ccc(O)cc1` [Example 53, 7-(4-hydroxybenzyl)-6-methyl-3-(tetrahydro-2H-pyran-4-yl)imidazo[1,5-a]pyrazin-8(7H)-one]: the IC50 amounted to 401 nM in test [1], 35 nM in test [2] and 84 nM in test [3]. Also, the inhibition at 10 µM in test [4] is -41%.
For `COC1(c2ncc3c(=O)n(Cc4cccc(F)c4)c(C)cn23)CCOCC1` [Example 28, 7-(3-fluorobenzyl)-3-(4-methoxytetrahydro-2H-pyran-4-yl)-6-methylimidazo[1,5-a]pyrazin-8(7H)-one] the same measures were 663 nM, 737 nM, 72 nM and 13%.
On to `CCc1cn2c(C3CCOCC3)ncc2c(=O)n1Cc1cccc(F)c1` [Example 54, 6-ethyl-7-(3-fluorobenzyl)-3-(tetrahydro-2H-pyran-4-yl)imidazo[1,5-a]pyrazin-8(7H)-one], for which the IC50 turned out to be 62 nM in test [1], 53 nM in test [2] and 12 nM in test [3]. The inhibition at 10 µM in test [4] is 23%.
In the case of `Cc1cn2c([C@@H]3CCOC3)ncc2c(=O)n1Cc1cccc(F)c1` (single isomer, unassigned; isomer 1) [31, isomer 1], the figures for the IC50 in test [1], in test [2] and in test [3] were 337 nM, 106 nM and 27 nM, respectively. Moreover, in test [4], the “% inhibition of PDE9 at 10 microM” value is −1%.
On to `COc1ccc(Cn2c(C)cn3c([C@H](C)c4ccccc4)ncc3c2=O)cc1` [Example 72, (R)-7-(4-methoxybenzyl)-6-methyl-3-(1-phenylethyl)imidazo[1,5-a]pyrazin-8(7H)-one], for which the IC50 was 90 nM in test [1], 12 nM in test [2] and 43 nM in test [3]. Moreover, in test [4], the inhibition at 10 µM was found to be 9%.
On to `Cc1cn2c(C3CCOCC3)ncc2c(=O)n1Cc1ccc(C#N)cc1` [Example 46, 4-((6-methyl-8-oxo-3-(tetrahydro-2H-pyran-4-yl)imidazo[1,5-a]pyrazin-7(8H)-yl)methyl)benzonitrile], for which it took 809 nM to reach half-maximal inhibition in test [1] (IC50). Besides, the inhibition at 1 µM in test [2] (read-out: PDE1B, % inhibition (at 1 μM)) came to 58%; in test [3] (read-out: PDE1C, % inhibition (at 1 μM)), 9%. The inhibition at 10 µM in test [4] is 14%.
For the molecule `Cc1cn2c(C3(C)CCOC3)ncc2c(=O)n1Cc1cccc(F)c1` (single isomer, unassigned; isomer 2) [32, isomer 2], the IC50 in test [1] turned out to be 401 nM; in test [2] it was 170 nM; in test [3], 40 nM. The “% inhibition of PDE9 at 10 microM” value in test [4] turned out to be 16%.
On to `COc1ccc(Cn2c(C)cn3c(C4(C)CCN(S(N)(=O)=O)C4)ncc3c2=O)cc1` (centres unmarked) [Example 91, 3-(7-(4-methoxybenzyl)-6-methyl-8-oxo-7,8-dihydroimidazo[1,5-a]pyrazin-3-yl)-3-methylpyrrolidine-1-sulfonamide], for which the 50% inhibitory concentration (IC50) in test [1] was determined as 181 nM; in test [2] it was 185 nM; in test [3], 417 nM. In addition, the inhibition at 10 µM in test [4] was found to be 20%.
For `COc1ccc(Cn2c(C)cn3c([C@@H](C)c4ccccc4)ncc3c2=O)cc1` [Example 71, (S)-7-(4-methoxybenzyl)-6-methyl-3-(1-phenylethyl)imidazo[1,5-a]pyrazin-8(7H)-one] the same measures were 211 nM, 238 nM, 538 nM and 13%.
On the same counts, the results for `COc1ccc(Cn2c(C)cn3c(C(C)c4nc(C)cs4)ncc3c2=O)cc1` (centres unmarked) [Example 90, 7-(4-methoxybenzyl)-6-methyl-3-(1-(4-methylthiazol-2-yl)ethyl)imidazo[1,5-a]pyrazin-8(7H)-one] are 34 nM, 15 nM, 23 nM and 10%.
For the molecule `Cc1cn2c([C@H]3C[C@@H]3C)ncc2c(=O)n1Cc1cccc(F)c1` (single isomer, unassigned; isomer 3) [35, isomer 3], the IC50 in test [1] amounted to 82 nM; in test [2] it was 18 nM; in test [3] it was 8 nM. Also, the “% inhibition of PDE9 at 10 microM” value in test [4] was found to be 0%.
